Measurements from ChEMBL document CHEMBL5137023, “Discovery of 2H-benzo[b][1,4]oxazin-3(4H)-one derivatives as potent and selective CDK9 inhibitors that enable transient target engagement for the treatment of hematologic malignancies” (Eur J Med Chem, 2022).
pIC50: −log10 of the molar value. Values after ≈ are worked out from the molar mass of the structure shown. Active and inactive are the calls of the source. No cut-off for these calls is given here.

Experiments:
[1] = target: CDK9/cyclin T1 (Homo sapiens, UniProt P50750); assay: Inhibition of CDK9/Cyclin T1 (unknown origin) preincubated for 10 mins followed by ATP and CTD3 addition and measured after 30 mins by mobility shift assay; type: protein-complex assay
Chain of CDK9/cyclin T1 (O60563 whole entry): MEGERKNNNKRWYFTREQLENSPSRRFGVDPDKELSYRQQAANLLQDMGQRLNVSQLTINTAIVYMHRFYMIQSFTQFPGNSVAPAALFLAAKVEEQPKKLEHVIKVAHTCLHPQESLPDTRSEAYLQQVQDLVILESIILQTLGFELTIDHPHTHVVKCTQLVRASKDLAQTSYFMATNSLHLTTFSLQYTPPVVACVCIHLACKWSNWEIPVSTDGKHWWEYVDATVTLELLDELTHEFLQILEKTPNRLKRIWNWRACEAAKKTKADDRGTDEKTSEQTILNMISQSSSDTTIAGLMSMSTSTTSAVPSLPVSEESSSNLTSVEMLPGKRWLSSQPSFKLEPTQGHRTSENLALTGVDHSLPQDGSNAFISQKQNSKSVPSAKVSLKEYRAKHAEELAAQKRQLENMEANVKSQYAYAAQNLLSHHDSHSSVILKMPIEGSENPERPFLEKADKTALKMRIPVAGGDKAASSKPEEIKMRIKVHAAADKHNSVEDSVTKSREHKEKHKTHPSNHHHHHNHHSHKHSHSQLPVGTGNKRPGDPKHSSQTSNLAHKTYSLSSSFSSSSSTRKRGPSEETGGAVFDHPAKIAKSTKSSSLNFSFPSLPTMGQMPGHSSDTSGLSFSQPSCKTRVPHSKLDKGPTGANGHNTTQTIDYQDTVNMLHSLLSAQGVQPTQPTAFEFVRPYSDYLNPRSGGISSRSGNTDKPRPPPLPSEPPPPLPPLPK
Chain of CDK9/cyclin T1 (P50750 whole entry): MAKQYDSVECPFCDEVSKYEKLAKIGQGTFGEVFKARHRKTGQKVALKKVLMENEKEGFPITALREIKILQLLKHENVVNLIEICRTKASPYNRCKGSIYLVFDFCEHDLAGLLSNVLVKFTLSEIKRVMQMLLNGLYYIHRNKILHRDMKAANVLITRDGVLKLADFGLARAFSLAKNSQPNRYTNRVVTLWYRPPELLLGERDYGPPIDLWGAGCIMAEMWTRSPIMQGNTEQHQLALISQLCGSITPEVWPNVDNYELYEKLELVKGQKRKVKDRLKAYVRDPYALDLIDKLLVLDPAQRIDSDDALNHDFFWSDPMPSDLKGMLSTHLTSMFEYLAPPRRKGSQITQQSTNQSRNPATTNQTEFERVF

[2] = system: MV4-11; assay: Antiproliferative activity against human MV4-11 cells assessed as inhibition of cell growth incubated for 72 hrs by CTG- luminescence assay; type: functional, cell-based; conditions: MV4-11, 72 h
[3] = Kinetic solubility of the compound in pH 7.4 PBS buffer incubated for 24 hrs under shaking condition by HPLC analysis; type: physicochemical; conditions: read-out: Kinetic_solubility
[4] = Initial plasma concentration in Sprague-Dawley rat at 1 mg/kg, iv bolus injection measured upto 24 hrs by LC-MS/MS analysis; type: ADME, organism-based
[5] = Elimination rate constant in Sprague-Dawley rat at 1 mg/kg, iv bolus injection measured upto 24 hrs by LC-MS/MS analysis; type: ADME, organism-based; conditions: in vivo
[6] = Half life in Sprague-Dawley rat at 1 mg/kg, iv bolus injection measured upto 24 hrs by LC-MS/MS analysis; type: ADME, organism-based; conditions: in vivo
[7] = MRT(0 to t) in Sprague-Dawley rat at 1 mg/kg, iv bolus injection measured upto 24 hrs by LC-MS/MS analysis; type: ADME, organism-based; conditions: in vivo
[8] = MRT(0 to infinity) in Sprague-Dawley rat at 1 mg/kg, iv bolus injection measured upto 24 hrs by LC-MS/MS analysis; type: ADME, organism-based; conditions: in vivo
[9] = AUC(0 to t) in Sprague-Dawley rat at 1 mg/kg, iv bolus injection measured upto 24 hrs by LC-MS/MS analysis; type: ADME, organism-based; set-up: dose 1 mg/kg, time < 24 hrs, route iv; conditions: in vivo
[10] = AUC(0 to infinity) in Sprague-Dawley rat at 1 mg/kg, iv bolus injection measured upto 24 hrs by LC-MS/MS analysis; type: ADME, organism-based; set-up: time < 24 hrs, dose 1 mg/kg, route iv; conditions: in vivo
[11] = Clearance in Sprague-Dawley rat at 1 mg/kg, iv bolus injection measured upto 24 hrs by LC-MS/MS analysis; type: ADME, organism-based; conditions: in vivo
[12] = Volume of distribution at steady state in Sprague-Dawley rat at 1 mg/kg, iv bolus injection measured upto 24 hrs by LC-MS/MS analysis; type: ADME, organism-based; conditions: in vivo, read-out: Vdss
[13] = system: MV4-11; assay: Downregulation of Mcl-1 expression in human MV4-11 cells at 1 uM incubated for 24 hrs by Western blot analysis; type: functional, cell-based
[14] = system: MV4-11; assay: Downregulation of c-Myc expression in human MV4-11 cells at 1 uM incubated for 24 hrs by Western blot analysis; type: functional, cell-based
[15] = system: MV4-11; assay: Inhibition of RNA polymerase 2 phosphorylation at Ser2 residue in human MV4-11 cells at 1 uM incubated for 24 hrs by Western blot analysis; type: cell-based
[16] = system: MV4-11; assay: Antiproliferative activity against human MV4-11 cells assessed as inhibition of cell growth at 0.37 uM incubated for 72 hrs by CTG- luminescence assay relative to control; type: functional

Structure (SMILES) | pIC50 [1] | pIC50 [2] | other results
CCN1C(=O)COc2c(CN3CCOCC3)cc(Nc3nccc(-c4ccc5nn(C)c(C(C)C)c5c4)n3)cc21 | 7.68 | – | –
CCN1C(=O)COc2c(CN3CCOCC3)cc(Nc3nccc(-c4ccc(F)cc4OCc4ccccc4)n3)cc21 | < 7.00 | – | –
CCN1CCN(Cc2cc(Nc3ncc(F)c(-c4ccc(F)cc4OC)n3)cc3c2OCC(=O)N3CC)CC1 | 8.36 | 6.85 | –
CCN1C(=O)COc2c(CN3CCOCC3)cc(Nc3nccc(-c4cccnc4)n3)cc21 | 8.17 | 6.51 | –
CCN1C(=O)COc2c(CN3CCOCC3)cc(Nc3nccc(-c4ccc5nnn(C(C)C)c5c4)n3)cc21 | 7.89 | 6.74 | –
CCN1C(=O)COc2c(CN3CCOCC3)cc(Nc3cc(-c4ccc(F)cc4OC)c(F)cn3)cc21 | 7.38 | – | –
CCN1C(=O)COc2c(CN3CCOCC3)cc(Nc3nccc(-c4ccc5nc(C)n(C(C)C)c5c4)n3)cc21 | 7.64 | – | –
CCN1C(=O)COc2c(CN3CCNCC3)cc(Nc3ncc(F)c(-c4ccc(F)cc4OC)n3)cc21 | 8.38 | 6.89 | –
CCN1C(=O)COc2c(CN3CCOCC3)cc(Nc3nccc(-c4cn(C)c5ccccc45)n3)cc21 | 7.41 | – | –
CN1CC[C@H](c2c(O)cc(O)c3c(=O)cc(-c4ccccc4Cl)oc23)[C@H](O)C1 | – | – | Activity [13]: Active; Activity [14]: Active; inhibition [15]: Active
CCN1C(=O)COc2c(CN3CCOCC3)cc(Nc3cc(-c4ccc(F)cc4OC)c(Cl)cn3)cc21 | 7.10 | – | –
CCN1C(=O)COc2c(CN3CCN(C)CC3)cc(Nc3ncc(F)c(-c4ccc(F)cc4OC)n3)cc21 | 8.27 | 6.60 | –
CCN1C(=O)COc2c(CN3CCS(=O)(=O)CC3)cc(Nc3ncc(F)c(-c4ccc(F)cc4OC)n3)cc21 | 8.22 | – | inhibition at 0.37 µM [16]: 15%

Further lines, with some results ahead:

pIC50 [1] | pIC50 [2] | Structure (SMILES) | other results
8.60 | 7.05 | CCN1C(=O)COc2c(CN(C)CCNC)cc(Nc3ncc(F)c(-c4ccc(F)cc4OC)n3)cc21 | –
8.72 | 6.44 | CCN1C(=O)COc2c(CN3CCOC[C@H]3C)cc(Nc3ncc(F)c(-c4ccc(F)cc4OC)n3)cc21 | –
8.96 | 6.98 | CCN1C(=O)COc2c(CN3CCOCC3)cc(Nc3ncc(F)c(-c4ccc(F)cc4OC)n3)cc21 | –
8.52 | 7.82 | CCN1C(=O)COc2c(CN3CCN(S(C)(=O)=O)CC3)cc(Nc3ncc(F)c(-c4ccc(F)cc4OC)n3)cc21 | solubility kinetic at 24 h [3]: 30.5 µg/mL (≈ 51.8 µM); C0 at 24 h [4]: 1060 ng/mL; k el at 24 h [5]: 0.000728 s⁻¹; half-life [6]: 15.9 min; MRT last at 24 h [7]: 14.4 min; MRT inf [8]: 14.8 min; AUC(0-t) at 24 h [9]: 245 ng·h/mL; AUC(0-inf) [10]: 246 ng·h/mL; clearance [11]: 68.1 mL/min/kg; Vd [12]: 1.01 L/kg
8.64 | 7.19 | CCN1C(=O)COc2c(CN(C)CCOC)cc(Nc3ncc(F)c(-c4ccc(F)cc4OC)n3)cc21 | –
8.44 | 6.89 | CCN1C(=O)COc2c(CN3CCSCC3)cc(Nc3ncc(F)c(-c4ccc(F)cc4OC)n3)cc21 | –
8.68 | 6.96 | CCN1C(=O)COc2c(CN3CCC(N4CCOCC4)CC3)cc(Nc3ncc(F)c(-c4ccc(F)cc4OC)n3)cc21 | –
8.59 | 7.59 | CCN(CC)Cc1cc(Nc2ncc(F)c(-c3ccc(F)cc3OC)n2)cc2c1OCC(=O)N2CC | solubility kinetic at 24 h [3]: 3.9 µg/mL (≈ 7.84 µM); C0 at 24 h [4]: 155 ng/mL; k el at 24 h [5]: 0.0004 s⁻¹; half-life [6]: 29.8 min; MRT last at 24 h [7]: 36.7 min; MRT inf [8]: 41.3 min; AUC(0-t) at 24 h [9]: 107 ng·h/mL; AUC(0-inf) [10]: 111 ng·h/mL; clearance [11]: 168 mL/min/kg; Vd [12]: 6.45 L/kg
8.66 | 6.84 | CCN1C(=O)COc2c(CN(C)CCN(C)C)cc(Nc3ncc(F)c(-c4ccc(F)cc4OC)n3)cc21 | –
8.80 | 6.98 | CCN1C(=O)COc2c(CN3CCN(C4COC4)CC3)cc(Nc3ncc(F)c(-c4ccc(F)cc4OC)n3)cc21 | –
8.47 | 6.83 | CCN1C(=O)COc2c(CN3CCN(C(C)C)CC3)cc(Nc3ncc(F)c(-c4ccc(F)cc4OC)n3)cc21 | –
8.43 | 6.91 | CCN1C(=O)COc2c(CN3CCC(N(C)C)C3)cc(Nc3ncc(F)c(-c4ccc(F)cc4OC)n3)cc21 (centres undefined) | –
8.57 | 7.30 | CCN1C(=O)COc2c(CN3CCCCC3)cc(Nc3ncc(F)c(-c4ccc(F)cc4OC)n3)cc21 | –
8.59 | 6.64 | CCN1C(=O)COc2c(CN3CCOCC3)cc(Nc3nccc(-c4ccc(F)cc4OC)n3)cc21 | –
